From ChEMBL document CHEMBL4229526, “Quinoxaline derivatives as potential antitrypanosomal and antileishmanial agents” (Bioorg Med Chem, 2018)
Blank lines part the entries; values can stand above or below the compound they belong to.

Assays:
Leishmania donovani [1] = assay: Antileishmanial activity against Leishmania donovani MHOM/SD/62/1S-CL2D LdBOB axenic amastigotes harboring eGFP after 72 hrs by resazurin dye based fluorescence assay; type: functional, organism-based
Leishmania donovani [2] = assay: Antileishmanial activity against Leishmania donovani MHOM/SD/62/1S-CL2D LdBOB amastigotes harboring eGFP infected in human THP1 cells assessed as reduction in number of amastigotes per cell after 96 hrs by DAPI staining based microscopic analysis; type: functional, organism-based; settings: THP-1, 96 h
THP-1 = assay: Cytotoxicity against human THP1 cells infected with Leishmania donovani MHOM/SD/62/1S-CL2D LdBOB amastigotes harboring eGFP assessed as reduction in cell number after 96 hrs by DAPI staining based microscopic analysis; settings: THP-1, 96 h
Trypanosoma cruzi [3] = assay: Antitrypanosomal activity against Trypanosoma cruzi Tulahuen amastigote forms infected in rat H9c2 cells assessed as reduction in infected cells after 72 hrs by DRAQ5 DNA dye based confocal microscopic analysis; type: functional, organism-based; settings: H9c2, 72 h
H9c2 = assay: Cytotoxicity against rat H9c2 cells infected with Trypanosoma cruzi Tulahuen amastigote forms assessed as reduction in cell number after 72 hrs by DRAQ5 DNA dye based confocal microscopic analysis; settings: H9c2, 72 h
Trypanosoma brucei = assay: Antitrypanosomal activity against Trypanosoma brucei Lister 427 bloodstream forms after 48 hrs by resazurin dye based fluorescence assay; type: functional, organism-based; settings: Lister 427, 48 h
Trypanosoma cruzi [4] = assay: Antitrypanosomal activity against Trypanosoma cruzi Tulahuen trypomastigote forms infected in monkey LLC-MK2 cells after 24 hrs by CellTiter-Glo luminescent cell viability assay; type: functional, organism-based; settings: LLC-MK2, 24 h
[5] = Cytotoxicity against human HepG2 cells after 48 hrs by CellTiter-Glo cell viability assay; type: cell-based
Leishmania donovani [6] = assay: Antileishmanial activity against Leishmania donovani MHOM/SD/62/1S-CL2D LdBOB amastigotes harboring eGFP infected in human THP1 cells assessed as reduction in infected cells after 96 hrs by DAPI staining based microscopic analysis; type: functional, organism-based; settings: THP-1, 96 h
Trypanosoma cruzi [7] = assay: Antitrypanosomal activity against Trypanosoma cruzi Tulahuen amastigote forms infected in rat H9c2 cells assessed as reduction in amastigote number per cell after 72 hrs by DRAQ5 DNA dye based confocal microscopic analysis; type: functional, organism-based; settings: H9c2, 72 h

SMILES: COc1ccc2nc(-c3ccc(-c4ccccc4)cc3)c(-c3ccc(S(C)(=O)=O)cc3)nc2c1
IC50 (Leishmania donovani [1]): > 50 µM
IC50 (Leishmania donovani [2]): > 50 µM
IC50 (THP-1): 39.8 µM
IC50 (Trypanosoma cruzi [3]): 19.9 µM
IC50 (H9c2): 25.1 µM
IC50 (Trypanosoma brucei): 31.6 µM
IC50 (Trypanosoma cruzi [4]): 42.4 µM
CC50 at 48 h [5]: > 100 µM
IC50 (Leishmania donovani [6]): > 50 µM
IC50 (Trypanosoma cruzi [7]): 31.6 µM

SMILES: CCCCNc1nc2ccc(OC)cc2nc1S(C)(=O)=O
IC50 (Leishmania donovani [1]): 12.6 µM
IC50 (Leishmania donovani [2]): 25.1 µM
IC50 (THP-1): 12.6 µM
IC50 (Trypanosoma cruzi [3]): 19.9 µM
IC50 (H9c2): 15.8 µM
IC50 (Trypanosoma brucei): 25.1 µM
IC50 (Trypanosoma cruzi [4]): 8.86 µM
CC50 at 48 h [5]: 19.9 µM
IC50 (Leishmania donovani [6]): 31.6 µM
IC50 (Trypanosoma cruzi [7]): 19.9 µM

SMILES: Cc1ccc(-c2nc3cc(Cl)c(Cl)cc3nc2-c2ccccc2)cc1
IC50 (Leishmania donovani [1]): > 50 µM
IC50 (Leishmania donovani [2]): > 50 µM
IC50 (THP-1): > 50 µM
IC50 (Trypanosoma cruzi [3]): 15.8 µM
IC50 (H9c2): > 50 µM
IC50 (Trypanosoma brucei): 19.9 µM
IC50 (Trypanosoma cruzi [4]): > 50 µM
CC50 at 48 h [5]: > 100 µM
IC50 (Leishmania donovani [6]): > 50 µM
IC50 (Trypanosoma cruzi [7]): 10 µM

SMILES: COc1ccc2nc(NCCO)c(S(C)(=O)=O)nc2c1
IC50 (Leishmania donovani [1]): 25.1 µM
IC50 (Leishmania donovani [2]): 25.1 µM
IC50 (THP-1): 31.6 µM
IC50 (Trypanosoma cruzi [3]): 39.8 µM
IC50 (H9c2): 31.6 µM
IC50 (Trypanosoma brucei): 39.8 µM
IC50 (Trypanosoma cruzi [4]): 23.5 µM
CC50 at 48 h [5]: 39.8 µM
IC50 (Leishmania donovani [6]): > 50 µM
IC50 (Trypanosoma cruzi [7]): 31.6 µM

SMILES: C[C@@H]1[C@H](O)[C@@H](C)/C=C/C=C/C=C/C=C/C=C/C=C/C=C/[C@H](O[C@@H]2O[C@H](C)[C@@H](O)[C@H](N)[C@@H]2O)C[C@@H]2O[C@](O)(C[C@@H](O)C[C@@H](O)[C@H](O)CC[C@@H](O)C[C@@H](O)CC(=O)O[C@H]1C)C[C@H](O)[C@H]2C(=O)O [AMPHOTERICIN B]
IC50 (Leishmania donovani [1]): 1.58 µM
IC50 (Leishmania donovani [2]): 0.63 µM
IC50 (THP-1): 10 µM
IC50 (Leishmania donovani [6]): 0.63 µM

SMILES: COc1ccc2nc(S(C)(=O)=O)c(NCC(C)C)nc2c1
IC50 (Leishmania donovani [1]): > 50 µM
IC50 (Leishmania donovani [2]): > 50 µM
IC50 (THP-1): > 50 µM
IC50 (Trypanosoma cruzi [3]): 31.6 µM
IC50 (H9c2): 31.6 µM
IC50 (Trypanosoma brucei): 31.6 µM
IC50 (Trypanosoma cruzi [4]): 44 µM
CC50 at 48 h [5]: 79.4 µM
IC50 (Leishmania donovani [6]): > 50 µM
IC50 (Trypanosoma cruzi [7]): 31.6 µM

SMILES: Clc1ccc2nc(-c3ccccc3)c(-c3ccccc3)nc2c1
IC50 (Leishmania donovani [1]): > 50 µM
IC50 (Leishmania donovani [2]): > 50 µM
IC50 (THP-1): > 50 µM
IC50 (Trypanosoma cruzi [3]): 19.9 µM
IC50 (H9c2): > 50 µM
IC50 (Trypanosoma brucei): 25.1 µM
IC50 (Trypanosoma cruzi [4]): > 50 µM
CC50 at 48 h [5]: > 100 µM
IC50 (Leishmania donovani [6]): > 50 µM
IC50 (Trypanosoma cruzi [7]): 15.8 µM

SMILES: Clc1cc2nc(-c3ccccc3)c(-c3ccccc3)nc2cc1Cl
IC50 (Leishmania donovani [1]): > 50 µM
IC50 (Leishmania donovani [2]): > 50 µM
IC50 (THP-1): > 50 µM
IC50 (Trypanosoma cruzi [3]): > 50 µM
IC50 (H9c2): > 50 µM
IC50 (Trypanosoma brucei): 39.8 µM
IC50 (Trypanosoma cruzi [4]): > 50 µM
CC50 at 48 h [5]: > 100 µM
IC50 (Leishmania donovani [6]): > 50 µM
IC50 (Trypanosoma cruzi [7]): > 50 µM

SMILES: COc1ccc2nc(-c3ccc(Cl)cc3)c(-c3ccc([S+](C)[O-])cc3)nc2c1 (stereo unspecified)
IC50 (Leishmania donovani [1]): 3.16 µM
IC50 (Leishmania donovani [2]): 12.6 µM
IC50 (THP-1): 12.6 µM
IC50 (Trypanosoma cruzi [3]): 12.6 µM
IC50 (H9c2): 6.31 µM
IC50 (Trypanosoma brucei): 3.98 µM
IC50 (Trypanosoma cruzi [4]): 1.04 µM
CC50 at 48 h [5]: 7.94 µM
IC50 (Leishmania donovani [6]): 12.6 µM
IC50 (Trypanosoma cruzi [7]): 10 µM

SMILES: COc1ccc2nc(-c3ccc(S(C)(=O)=O)cc3)c(-c3ccc(Cl)cc3)nc2c1
IC50 (Leishmania donovani [1]): 7.94 µM
IC50 (Leishmania donovani [2]): 19.9 µM
IC50 (THP-1): 12.6 µM
IC50 (Trypanosoma cruzi [3]): 25.1 µM
IC50 (H9c2): 10 µM
IC50 (Trypanosoma brucei): 10 µM
IC50 (Trypanosoma cruzi [4]): 4.21 µM
CC50 at 48 h [5]: 25.1 µM
IC50 (Leishmania donovani [6]): 19.9 µM
IC50 (Trypanosoma cruzi [7]): 19.9 µM

SMILES: COc1ccc2nc(S(C)(=O)=O)c(NCCO)nc2c1
IC50 (Leishmania donovani [1]): > 50 µM
IC50 (Leishmania donovani [2]): > 50 µM
IC50 (THP-1): > 50 µM
IC50 (Trypanosoma cruzi [3]): > 50 µM
IC50 (H9c2): > 50 µM
IC50 (Trypanosoma brucei): 39.8 µM
IC50 (Trypanosoma cruzi [4]): 0.77 µM
CC50 at 48 h [5]: > 100 µM
IC50 (Leishmania donovani [6]): > 50 µM
IC50 (Trypanosoma cruzi [7]): > 50 µM

SMILES: COc1ccc2nc(S(C)(=O)=O)c(NCCC(C)C)nc2c1
IC50 (Leishmania donovani [1]): > 50 µM
IC50 (Leishmania donovani [2]): > 50 µM
IC50 (THP-1): 39.8 µM
IC50 (Trypanosoma cruzi [3]): 19.9 µM
IC50 (H9c2): 31.6 µM
IC50 (Trypanosoma brucei): 25.1 µM
IC50 (Trypanosoma cruzi [4]): > 50 µM
CC50 at 48 h [5]: 50.1 µM
IC50 (Leishmania donovani [6]): > 50 µM
IC50 (Trypanosoma cruzi [7]): 15.8 µM

IC50 (Trypanosoma brucei): 0.18 µM
SMILES: Cc1ccc(C(=O)Nc2ccc(S(=O)(=O)O)c3cc(S(=O)(=O)O)cc(S(=O)(=O)O)c23)cc1NC(=O)c1cccc(NC(=O)Nc2cccc(C(=O)Nc3cc(C(=O)Nc4ccc(S(=O)(=O)O)c5cc(S(=O)(=O)O)cc(S(=O)(=O)O)c45)ccc3C)c2)c1 [SURAMIN]

SMILES: CCCCNc1nc2ccccc2nc1S(C)(=O)=O
IC50 (Leishmania donovani [1]): 10 µM
IC50 (Leishmania donovani [2]): 19.9 µM
IC50 (THP-1): 12.6 µM
IC50 (Trypanosoma cruzi [3]): 15.8 µM
IC50 (H9c2): 10 µM
IC50 (Trypanosoma brucei): 25.1 µM
IC50 (Trypanosoma cruzi [4]): 8.67 µM
CC50 at 48 h [5]: 12.6 µM
IC50 (Leishmania donovani [6]): 25.1 µM
IC50 (Trypanosoma cruzi [7]): 15.8 µM

IC50 (Trypanosoma brucei): 0.01 µM
SMILES: N=C(N)c1ccc(OCCCCCOc2ccc(C(=N)N)cc2)cc1 [PENTAMIDINE]

SMILES: COc1ccc2nc(NCC(C)C)c(S(C)(=O)=O)nc2c1
IC50 (Leishmania donovani [1]): 12.6 µM
IC50 (Leishmania donovani [2]): 12.6 µM
IC50 (THP-1): 7.94 µM
IC50 (Trypanosoma cruzi [3]): 19.9 µM
IC50 (H9c2): 10 µM
IC50 (Trypanosoma brucei): 25.1 µM
IC50 (Trypanosoma cruzi [4]): 5.44 µM
CC50 at 48 h [5]: 12.6 µM
IC50 (Leishmania donovani [6]): 19.9 µM
IC50 (Trypanosoma cruzi [7]): 15.8 µM
